From patent US20260034150A1, “CANNABIDIOL FOR USE IN TREATING OR PREVENTING RECURRENT PERICARDITIS” (CARDIOL THERAPEUTICS INC., priority 2022, published 2026)
Values joined by “and” are separate entries in the source; they are usually repeats but may differ in a detail not shown here. Identical values can stand only once.

How the values were obtained:
[1] = test system: mouse model of pericarditis; assay: Mouse model of pericarditis (Zymosan A): pericardial thickness by histochemistry; type: in vivo; conditions: day seven, differences not statistically significant
Procedure: (§1) Experiments were conducted using a mouse model of pericarditis described in Mauro et al. (10), which mouse model is incorporated herein by reference for its disclosure of the mouse model.
(§2) Adult Institute of Cancer Research (IRC) mice (10 weeks of age) supplied by Harlan Laboratories (Harlan Sprague Dawley Inc.) were used and divided into the following treatment groups, with each group consisting of 4-5 mice: • 1. Group 1 (NaCl+Veh)—mice received normal saline (0.9% w/v NaCl) in the surgical procedure described below and were subsequently treated for seven days with a vehicle consisting of ethanol:Cremophor EL:water (1:1:18). • 2. Group 2 (NaCl+)—mice received normal saline (0.9% w/v NaCl) in the surgical procedure described below and were subsequently treated for seven days with cannabidiol at a dose of 10 mg/kg. The cannabidiol was dissolved in the same vehicle as the vehicle used for Group 1. • 3. Group 3 (Zym+Veh)—mice received Zymosan A in the surgical procedure described below and were subsequently treated for seven days with the same vehicle as the vehicle used for Group 1. • 4. […] The cannabidiol was dissolved in the same vehicle as the vehicle used for Group 1. • 5. […] The cannabidiol was dissolved in the same vehicle as the vehicle used for Group 1.
The mice of all four treatment groups were anesthetized, intubated orotracheally, and placed in the right lateral decubitus position. A left thoracotomy was then performed. […]
Following echocardiography, and on day seven, the mice were sacrificed, and their hearts were explanted and processed for pathology. […] An investigator blinded to group allocation measured the pericardial thickness with the aid of computer morphometry using Image-Pro™ Plus 6.0 software (Media Cybernetics, Silver Spring, MD).

IL-6 = IL-6 ELISA in LPS-treated macrophages (in vitro model of inflammation); type: cell-based, mouse; conditions: CBD 10 μM + LPS 1 μg/mL for 6 hours; J774A.1
Procedure: Experiments were performed to evaluate cannabidiol's anti-inflammatory activity and mechanism of action. The secretion of IL-6 and the transcription of the NLRP3 inflammasome components, pro-IL-1β mRNA, and NLRP3 mRNA, are regulated by the NF-κβ pathway and activated by LPS. In a first experiment, J774A.1 mouse macrophages were cultured in 96-well plates (15,000 cells/well) and divided into the following groups to which various treatments described below were administered during a period of six hours: • 1. Group 1 (Control)—cells received nothing during the 6 hours treatment period. • 2. Group 2 (LPS)—cells received LPS (1 μg/ml) for 6 hours. • 3. […] After 6 hours, 100 μL of a sample from each well of cells was collected and loaded as a single point in a specific ELISA assay that was used to measure the amount of IL-6 in each sample. […] A second experiment was performed to evaluate the effect of cannabidiol on the transcription of components of the NLRP3 inflammasome, namely, pro-IL-1β mRNA and NLRP3 mRNA. In this second experiment, J774A.1 mouse macrophages were cultured in individual plates (1,000,000 cells/well) and divided into the following groups to which various treatments described below were administered during a period of six hours. • 1. Group 1 (Control)—cells received nothing during the 6 hours treatment period. • 2. […]

NLRP3 mRNA = assay: PCR of NLRP3 mRNA transcription in LPS-treated macrophages; type: cell-based, mouse; conditions: CBD 10 μM + LPS 1 μg/mL for 6 hours; J774A.1
Procedure: (§3) Experiments were performed to evaluate cannabidiol's anti-inflammatory activity and mechanism of action. The secretion of IL-6 and the transcription of the NLRP3 inflammasome components, pro-IL-1β mRNA, and NLRP3 mRNA, are regulated by the NF-κβ pathway and activated by LPS. After 6 hours, 100 μL of a sample from each well of cells was collected and loaded as a single point in a specific ELISA assay that was used to measure the amount of IL-6 in each sample. […] A second experiment was performed to evaluate the effect of cannabidiol on the transcription of components of the NLRP3 inflammasome, namely, pro-IL-1β mRNA and NLRP3 mRNA. In this second experiment, J774A.1 mouse macrophages were cultured in individual plates (1,000,000 cells/well) and divided into the following groups to which various treatments described below were administered during a period of six hours. • 1. Group 1 (Control)—cells received nothing during the 6 hours treatment period. • 2. Group 2 (LPS)—cells received LPS (1 μg/ml) for 6 hours. • 3. […] At the end of the six-hour treatment period, samples from each group were collected and processed using Polymerase Chain Reaction (PCR) to measure the level of transcription of pro-IL-1B mRNA and NLRP3 mRNA in the samples.

[2] = test system: mouse model of pericarditis; assay: Mouse model of pericarditis (Zymosan A): pericardial space by transthoracic echocardiography; type: in vivo
Procedure: as §1, §2
The mice of all four treatment groups were anesthetized, intubated orotracheally, and placed in the right lateral decubitus position. A left thoracotomy was then performed. Under direct visualization and using a 30 Gauge needle, 1 mg of Zymosan A (referred to herein also as “zymosan”) dissolved in 50 μl of sterile normal saline (0.9% w/v NaCl) was delivered into the pericardial space of the mice of Groups 3 and 4 by carefully lifting the pericardial sac with forceps until a complete distribution of the solution into the pericardium was achieved. […] All mice received analgesia for the peri-operative period.
For all groups, treatments with either cannabidiol dissolved in vehicle, or vehicle alone, were administered intraperitoneally (IP) every day for seven days with the first treatment administered approximately 30 minutes after the surgery.
On day seven, echocardiography was performed on the mice of all groups under light anesthesia using a Prospect™ T1 ultrasound imaging system (Scintica, London, Canada). In this procedure, the left ventricle in the parasternal short-axis view at the mid-ventricular level was visualized in the bi-dimensional mode (B-mode). The image was optimized for the anterior wall, and the image was zoomed in to visualize the anterior pericardial structures. After optimization of the image, amono-dimensional mode (M-mode) was acquired for optimal spatial-temporal resolution. An investigator blinded to group allocation measured the maximal pericardial space between the 2 layers of the pericardium in both M- and B-mode. The pericardial space is a one-dimensional measure of pericardial effusion.

pro-IL-1β mRNA = assay: PCR of pro-IL-1β mRNA transcription in LPS-treated macrophages; type: cell-based, mouse; conditions: CBD 10 μM + LPS 1 μg/mL for 6 hours; J774A.1
Procedure: as §3

NLRP3 inflammasome = assay: IL-1β ELISA in the in vitro model of NLRP3 inflammasome activation (LPS + ATP); type: cell-based, mouse; conditions: for attenuation of the increase in IL-1β: CBD 10 μM, LPS + ATP
Procedure: An experiment was performed to determine the effect of 10 μM cannabidiol on NLRP3 inflammasome activation in an in vitro model as follows. J774A.1 mouse macrophages were cultured in 96-well plates (15,000 cells/well) and divided into the following groups to which various treatments described below were administered during a period of six hours: • 1. Group 1 (CNT)—cells received nothing during the 6-hour treatment period. • 2. Group 2 (LPS)—cells received LPS (1 μg/ml) for 6 hours. • 3. Group 3 (ATP)—cells received nothing for 5.5 hours and then ATP (5 mM) for the last 30 minutes. • 4. Group 4 (LPS+ATP)—cells received LPS (1 μg/mL) for 5.5 hours and ATP (5 mM) for the last 30 minutes. • 5. […] After 6 hours, 100 μL of a sample from each well of cells was collected and loaded as a single point in a specific ELISA assay that was used to measure the amount of IL-1β secreted by the macrophages in each sample. IL-1β is an indicator of and positively correlated with NLRP3 inflammasome activation. An experiment was performed to evaluate the effect of different doses of cannabidiol (10, 1, 0.1, and 0.01 μM) using the in vitro model of Example 1A. In this experiment, J774A.1 mouse macrophages were cultured in 96-well plates (15,000 cells/well) and divided into the following groups to which various treatments described below were administered during a period of six hours: • 1. Group 1 (Control)—cells received nothing during the 6-hour treatment period. • 2. Group 2 (LPS+ATP)—cells received LPS (1 μg/mL) for 5.5 hours and ATP (5 mM) for the last 30 minutes. • 3. […] After 6 hours, 100 μL of a sample from each well of cells was collected and loaded as a single point in a specific ELISA assay that was used to measure the amount of IL-1β in each sample.

With `C=C(C)[C@@H]1CCC(C)=C[C@H]1c1c(O)cc(CCCCC)cc1O` [CBD, 2-[(1R,6R)-3-methyl-6-prop-1-en-2-ylcyclohex-2-en-1-yl]-5-pentylbenzene-1,3-diol] the “pericardial thickness versus Group 1 (NaCl+Veh), Zym+CBD 1 mg/kg” value ([1]; Zymosan A mice, CBD 1 mg/kg IP) was “did not develop a pericardial thickness different from that of the mice of Group 1”, the “pericardial thickness versus Group 1 (NaCl+Veh), Zym+CBD 10 mg/kg (FIG. 3)” value ([1]; Zymosan A mice, CBD 10 mg/kg IP) was “did not develop a pericardial thickness different from that of the mice of Group 1” and the “pericardial thickness versus Group 1 (NaCl+Veh), NaCl+CBD (FIG. 3)” value ([1]; sham mice, CBD 10 mg/kg IP) was “did not develop a pericardial thickness different from that of the mice of Group 1”. For the same compound, the “effect on LPS-induced increase in IL-6 (FIG. 1C)” value (IL-6) was “attenuated this increase completely”, the “effect on LPS-induced transcription of NLRP3 mRNA (FIG. 1E)” value (NLRP3 mRNA) was “significantly attenuated these increases” and the “effect on increase in measured pericardial space, Zym+CBD 1 mg/kg (FIG. 2)” value ([2]; Zymosan A mice, CBD 1 mg/kg IP daily for seven days) was “attenuated the increase in the measured pericardial space to the same degree as cannabidiol at a dose of 10 mg/kg”. For the same compound, the “Measured pericardial space, Zym + CBD, Mean” value ([2]; Zymosan A mice, CBD 10 mg/kg IP daily for seven days, day seven, mean) was 0.1177 mm, the “Measured pericardial space, Zym + CBD” value ([2]; Zymosan A mice, CBD 10 mg/kg IP daily for seven days, day seven, single mice) was 0.103 mm and 0.152 mm and 0.112 mm and 0.104 mm and the “pericardial space versus Group 1 (Saline+Veh), Zym+CBD” value ([2]; Zymosan A mice, CBD 10 mg/kg IP, differences not statistically significant) was “did not develop a pericardial space greater than that of the mice of Group 1”. For the same compound, the “attenuation of the increase in the measured pericardial space” value ([2]; calculated from Table 2 means, Zymosan A mice, CBD 10 mg/kg IP) was “at least 85%”, the “Measured pericardial space, Saline + CBD” value ([2]; sham (saline) mice, CBD 10 mg/kg IP daily for seven days, day seven, single mice) was 0.098 mm and 0.097 mm and 0.105 mm and the “pericardial space versus Group 1 (Saline+Veh), Saline+CBD” value ([2]; sham mice, CBD 10 mg/kg IP, differences not statistically significant) was “did not develop a pericardial space greater than that of the mice of Group 1”. For the same compound, the “effect on LPS-induced transcription of pro-IL-1β mRNA (FIG. 1D)” value (pro-IL-1β mRNA) was “significantly attenuated these increases”, the “IL-1β concentration versus LPS+ATP group (FIG. 1A)” value (NLRP3 inflammasome; CBD 10 μM + LPS + ATP versus LPS + ATP, J774A.1) was “significantly lower concentrations of IL-1β” and the “effect of different concentrations on IL-1β (FIG. 1B)” value (NLRP3 inflammasome; CBD 10, 1, 0.1 and 0.01 μM + LPS + ATP, J774A.1) was “effective to attenuate the increase in IL-1β in a dose dependent fashion”. The “IL-1β with CBD alone versus Control group” value (NLRP3 inflammasome; CBD alone 10 μM, no LPS or ATP, J774A.1) was “no different than the Control group”, the “IL-1β Concentration, CBD, Mean” value (NLRP3 inflammasome; Table 1A.1, J774A.1 macrophages, CBD 10 μM alone for 6 hours, mean) was 6 pg/mL and the “IL-1β Concentration, CBD” value (NLRP3 inflammasome; Table 1A.1, J774A.1 macrophages, CBD 10 μM alone for 6 hours, single wells) was 5.9 pg/mL and 6.1 pg/mL. The “IL-1β Concentration, CBD + LPS + ATP, Mean” value (NLRP3 inflammasome; Table 1A.1, J774A.1, CBD 10 μM + LPS 1 μg/mL 5.5 hours, ATP 5 mM last 30 minutes, mean) was 118.725 pg/mL, the “IL-1β Concentration, CBD” value (NLRP3 inflammasome; Table 1A.2 (repeat), J774A.1, CBD 10 μM alone, single wells) was 7.86 pg/mL and 6.35 pg/mL and 8.81 pg/mL and 9.46 pg/mL and 10.46 pg/mL and 8.97 pg/mL and the “IL-1β Concentration, LPS + ATP + CBD” value (NLRP3 inflammasome; Table 1A.3 (repeat), J774A.1, CBD 10 μM + LPS + ATP, single wells) was 10.8 pg/mL and 17 pg/mL and 11.31 pg/mL and 18.96 pg/mL. The “IL-1β Concentration, LPS + ATP + CBD, Mean” value (NLRP3 inflammasome; Table 1A.4, mean of Tables 1A.2 and 1A.3, CBD 10 μM + LPS + ATP) was 19.44 pg/mL, the “IL-1β Concentration, CBD, Mean” value (NLRP3 inflammasome; Table 1A.4, mean of Tables 1A.2 and 1A.3, CBD 10 μM alone) was 8.898 pg/mL and the “attenuation of the increase in IL-1β” value (NLRP3 inflammasome; calculated from Table 1A.1 means) was “over 70%”. For the same compound, the “attenuation of the increase in IL-1β” value (NLRP3 inflammasome; calculated from Table 1A.4 means) was “about 97.65%”.
